Entries after “also recorded” stand apart in the source; their conditions may differ. Ends that are not written are not given here.
Assays:
[1] = test system: Cartilage explants (native cartilage); test: Native cartilage explant culture; format: cell-based, calf
Method: Cartilage explants were taken from calf metacarpal-carpal joints and placed in culture in Ham's F-12 supplemented with 20% fetal bovine serum (FBS) in the presence and absence of AOD9604 (SEQ ID NO: 1) (10 or 100 μg/ml) for 1 week or (100 or 500 μg/ml) for 2 weeks.
The tissue was harvested and water content and dry weight measured. The tissue was then digested with papain (Sigma, 40 μg/ml) for 48 h at 65° C. DNA content was determined using the Hoechst 33258 dye binding assay (Polysciences) and fluorometry (excitation 365 nm, emission 458 nm). Proteoglycan content was determined by measuring the amount of sulphated glycosaminoglycans using the dimethylmethylene blue dye binding assay and spectrophotometry (525 nm). Collagen content was determined by measuring the hydroxyproline content of an aliquot of the papain digest hydrolyzed in 6N HCl for 18 h at 110° C. The hydroxyproline content was determined using the chloramine-T/Ehrlich's reagent assay and spectrophotometry (560 nm). The cellularity was quantified by measuring the DNA content using Hoescht 33258 dye binding assay (Polysciences) and fluorometry (excitation 365 nm, emission 458 nm.
All experiments were done three times and each condition was done in triplicate. The data was expressed as mean±SD. […]. Significance was determined using two way ANOVA followed by Tukey's post hoc test when multiple groups were being evaluated. T test was utilized if 2 groups were being compared. Significance was assigned at p values <0.05.

[2] = test system: C2C12 cells; test: C2C12 differentiation into myoblasts (myogenin staining); format: cell-based
Method: C2C12 (2×10^3 cells/cm^2) were grown in DMEM and 10% FBS. Differentiation was induced by replacing growth media with differentiation media which consists of DMEM supplemented with 2% horse serum. The cells were grown in the absence or presence of AOD9604 (10 or 100 μg/ml). The cells were fixed in 4% paraformaldehyde and co-stained for myogenin (a muscle specific muscle marker (transcription factor) 1/250 Tris-Triton X buffer) and Bodipy (cytoplasmic stain, Invitrogen, 1/1000 PBS). The number of cells stained for myogenin were counted in 4 random fields (up to 100 cells/field) (n=4). The percent of cells that stained positively for myogenin was calculated.
(§1) The data was expressed as mean±SD. The data was expressed as mean±SD. Significance was determined using two way ANOVA followed by Tukey's post hoc test when multiple groups were being evaluated. T test was utilized if 2 groups were being compared. Significance was assigned at p values <0.05.

[3] = test system: fibre disruption at the junction of supraspinatus tendon insertion; test: Case study: shoulder tendon; format: in vivo, human; settings: transdermal 600 mcg per dose twice daily, total 30 ml
From the text: The subject was a professional footballer. The athlete incurred some fibre disruption at the junction of supraspinatus tendon insertion. The MRI indicated an area of 1.0 cm within the disruptive pathology. […] Most of the affected area was the muscular portion of the junction. […] The athlete had been restricted in both the range of motion they could employ for the injured site as well as the amount of weight bearing activity they could engage for the area. They had been finding it difficult to abduct the arm at the shoulder joint.
The subject undertook an intervention of AOD9604 (SEQ ID NO: 1) at 600 mcg per dose. They applied one ml twice daily. The transdermal application was at 600 mcg per ml. The total application was 30 ml.

[4] = test system: 1.5 cm tear on soleus; test: Case study: calf muscle (soleus) tear; format: in vivo, human; settings: transdermal 600 mcg per dose twice daily, total 20 ml
From the text: The subject was a professional footballer. The athlete incurred at 1.5 cm tear on their soleus near the adjacent aponeurosis to the gastrocnemius. […] A 1.5 cm tear is considered a moderately large tear for the region. […] The fibre tears were directional with the orientation of the fibres. The length of the tear was 1.5 cm.
The subject undertook an intervention of AOD9604 (SEQ ID NO: 1) at 600 mcg per dose. He applied one ml twice daily. The transdermal application was at 600 mcg per ml. The total application was 20 ml.

[5] = test system: tear to the long head of bicep femoris; test: Case study: hamstring muscle tear; format: in vivo, human; settings: transdermal 600 mcg per dose twice daily, total 40 ml
From the text: The subject was a professional footballer. The athlete incurred at 2.0 cm tear to the long head of their bicep femoris. […] Some fibre disruption was noted below the tendon junction coming from the insertion. The length of the tear was 1.5 cm. The fusiform belly region around the injury was highly inflamed.
The subject undertook an intervention of AOD9604 (SEQ ID NO: 1) at 600 mcg per dose. They applied one ml twice daily. The transdermal application was at 600 mcg per ml. The total application was 40 ml.

[6] = test system: C2C12 cells; test: C2C12 cell proliferation (DNA content); format: cell-based; settings: 10 and 100 μg/ml, 3 days, FIG. 12
Method: C2C12 were grown in monolayer culture in DMEM (high glucose) supplemented with 10% fetal bovine serum under standard cell culture conditions. The cells were passaged at 60-70% confluence. The effect of AOD9604 (SEQ ID NO: 1) on cell proliferation was determined by growing the cells (3000 cells/cm^2) in the absence or presence of AOD9604 (10 and 100 μg/ml) for 3 days. The DNA content was then quantified. The cells were digested by papain and DNA content determined using the Hoechst 33258 dye binding assay (Polysciences) and fluorometry (excitation 365 nm, emission 458 nm).
as §1

[7] = test system: symptoms consistent with Clostridium tetani infection; set-up: species or system human; settings: in vivo, sc
[8] = test system: IGF-1; settings: effective dose, clinical trials; cited from earlier work
[9] = test system: C2C12 cells; test: C2C12 myotube quantification (Bodipy staining); format: cell-based; settings: over 72 hours, FIG. 11
Method: For myotube quantification the cells were stained with Bodipy (Invitrogen, 1/1000 PBS) according to the manufacturer's directions. The number of myotubes that developed over 72 hours was determined and expressed as a percent of total cells in culture (n=3, 100 cells/culture).
as §1

**Q.** For “YLRIVQCRSVEGSCGF (cysteine pairing not given here) [AOD9604]”, which “effect on native cartilage” value ([1]; 500 μg/ml, FIGS. 5-8) is on record?
**A.** no effect

**Q.** And the “proteoglycan content of native cartilage” value ([1]; FIGS. 5 and 7)?
**A.** does not affect

**Q.** What about the “collagen content of native cartilage” value ([1]; FIGS. 6 and 8) of the same sequence?
**A.** does not affect

**Q.** What about the “toxicity / DNA content of native cartilage” value ([1]; up to 500 μg/ml, 2 weeks of treatment, FIG. 4, listed as AOD) of the same sequence?
**A.** not toxic; also recorded: no effect

**Q.** What about the “differentiation of C2C12 cells into myoblasts” value (“differentiation” below) ([2]; 3 days (72 hours), doses as low as 10 μg/ml, FIG. 10) of the same sequence?
**A.** enhances

**Q.** What about the “differentiation” value ([2]; 3 days (72 hours), doses as low as 10 μg/ml, FIG. 10, listed as AOD) of the same sequence?
**A.** induces differentiation

**Q.** What about the “differentiation” value ([2]; after 24 hours of treatment, FIG. 9) of the same sequence?
**A.** induces differentiation

**Q.** What about the “residual pain or discomfort” value [3] of the same sequence?
**A.** no residual pain or discomfort

**Q.** And the resolution of injury [3]?
**A.** resolved in three weeks

**Q.** What about the “return to weight bearing activities” value [3] of the same sequence?
**A.** returned to full weight bearing activities and rotation activity

**Q.** And the “subsequent MRI” value [3]?
**A.** full integrity had returned to the junctional area

**Q.** What about the “follow up MRI” value [4] of the same sequence?
**A.** full integrity had returned to the injury

**Q.** What about the “residual pain or discomfort” value [4] of the same sequence?
**A.** no residual pain or discomfort

**Q.** What about the resolution of injury [4] of the same sequence?
**A.** resolved in two weeks

**Q.** What about the “return to weight bearing activities” value [4] of the same sequence?
**A.** returned to full weight bearing activities

**Q.** What about the “follow up MRI” value [5] of the same sequence?
**A.** full integrity had returned to the bicep femoris long head

**Q.** What about the “residual pain or discomfort” value [5] of the same sequence?
**A.** no residual pain or discomfort

**Q.** And the resolution of injury [5]?
**A.** resolved in three weeks

**Q.** What about the “return to weight bearing activities” value [5] of the same sequence?
**A.** returned to full weight bearing activities

**Q.** And the cell proliferation [6]?
**A.** did not affect

**Q.** And the cell proliferation ([6]; listed as AOD)?
**A.** does not enhance myotube Formation or alter cell proliferation

**Q.** And the pain [7]?
**A.** considerably reduced

**Q.** What about the resolution of symptoms [7] of the same sequence?
**A.** fully resolved at around day eight

**Q.** And the return to activity [7]?
**A.** resumed full running and moderate weight lifting activity on day eight

**Q.** And the “plasma level of IGF-1” value [8]?
**A.** did not elevate

**Q.** And the formation of myotubes [9]?
**A.** no affect

**Q.** What about the formation of myotubes ([9]; listed as AOD) of the same sequence?
**A.** does not enhance
